In article PMC10318822, “Phase 1 dose-escalation study to evaluate the safety, tolerability, pharmacokinetics, and anti-tumor activity of FCN-159 in adults with neurofibromatosis type 1-related unresectable plexiform neurofibromas” (BMC Medicine, 2023):
“Also recorded” adds a separate entry of the source.

Key:
NF1-related PN = test: Tumor response by MRI volumetric analysis (Response Evaluation in Neurofibromatosis Schwannomatosis criteria); type: in vivo, human; conditions: for Best overall response: Complete response / Best overall response: Disease progression / Best overall response: Not evaluable / Best overall response: Partial response / Best overall response: Stable disease: Investigator assessments
Description: Primary endpoints of the study were the DLT incidence rate, MTD, and RP2D. Secondary endpoints included other safety assessments, imaging tumor response (complete response [CR], PR, stable disease [SD], or progressive disease [PD]), and PK parameters of FCN-159. Adverse events were graded per CTCAE v5.0.
All patients underwent a complete medical history, physical examination, Eastern Cooperative Oncology Group (ECOG) assessment, and laboratory analysis of test results. Drug-related TEAEs, serious adverse events (SAEs), TEAEs of grade ≥ 3 toxicity, and TEAEs leading to drug discontinuation were reviewed on an ongoing basis. Efficacy was assessed by radiologic scans and clinical assessment. Tumor assessments per Response Evaluation in Neurofibromatosis Schwannomatosis criteria were performed by investigators using MRI volumetric analysis every 4 cycles within the first 2 years (± 7 days) and every 6 cycles after 2 years (± 14 days) until PD, death, patient's voluntary withdrawal from study treatment, or study termination. MRI sequences of […], T1- and T2-weighted sequences were chosen and the software of Extended Brilliance Workspace, SIGNA Premier and uExceed were used for MRI volumetric analysis. The same software was used for all tumor assessments at baseline and subsequent assessed timepoints of the same patient. Pain was assessed by an 11-point numerical rating scale (NRS-11).

[1] = tested on: patients with NF1-related PN with tumor pain; test: Pain assessed by 11-point numerical rating scale (NRS-11); type: in vivo, human
Experimental: Efficacy was assessed by radiologic scans and clinical assessment.

CYP3A4 = tested on: CYP3A4; parameters: method as in PMID 36755948; conditions: in vitro study; cited from earlier work
[2] = tested on: RAS-mutant tumor cell lines; parameters: method as in doi:10.1158/1538-7445.AM2020-1951; conditions: selected RAS-mutant tumor cell lines; cited from earlier work
[3] = tested on: xenograft models (including human melanoma A375); parameters: method as in doi:10.1158/1538-7445.AM2020-1951; conditions: nude mouse xenograft models (including human melanoma A375); cited from earlier work
[4] = parameters: method as in PMID 36113242; conditions: patients with NRAS mut+ melanoma; cited from earlier work
[5] = parameters: method as in PMID 36627544; conditions: healthy volunteers, compared with fasted state; cited from earlier work

Cn1c(=O)c(F)c(Nc2ccc(I)cc2F)c2c(=O)n(C3CC3)nc(-c3cccc(NS(=O)(=O)C4CC4)c3)c21 [FCN-159]
Best overall response: Complete response (NF1-related PN; 4 mg (n = 3)): 0 n (%)
Best overall response: Disease progression (NF1-related PN; 4 mg (n = 3)): 0 n (%)
Best overall response: Not evaluable (NF1-related PN; 4 mg (n = 3)): 0 n (%)
Best overall response: Partial response (NF1-related PN; 4 mg (n = 3)): 1 (33.3) n (%)
Best overall response: Stable disease (NF1-related PN; 4 mg (n = 3)): 2 (66.7) n (%)
Best overall response: Complete response (NF1-related PN; 6 mg (n = 4)): 0 n (%)
Best overall response: Disease progression (NF1-related PN; 6 mg (n = 4)): 0 n (%)
Best overall response: Not evaluable (NF1-related PN; 6 mg (n = 4)): 0 n (%)
Best overall response: Partial response (NF1-related PN; 6 mg (n = 4)): 2 (50.0) n (%)
Best overall response: Stable disease (NF1-related PN; 6 mg (n = 4)): 2 (50.0) n (%)
Best overall response: Complete response (NF1-related PN; 8 mg (n = 5)): 0 n (%)
Best overall response: Disease progression (NF1-related PN; 8 mg (n = 5)): 0 n (%)
Best overall response: Not evaluable (NF1-related PN; 8 mg (n = 5)): 0 n (%)
Best overall response: Partial response (NF1-related PN; 8 mg (n = 5)): 2 (40.0) n (%)
Best overall response: Stable disease (NF1-related PN; 8 mg (n = 5)): 3 (60.0) n (%)
Best overall response: Complete response (NF1-related PN; 12 mg (n = 4)): 0 n (%)
Best overall response: Disease progression (NF1-related PN; 12 mg (n = 4)): 0 n (%)
Best overall response: Not evaluable (NF1-related PN; 12 mg (n = 4)): 0 n (%)
Best overall response: Partial response (NF1-related PN; 12 mg (n = 4)): 1 (25.0) n (%)
Best overall response: Stable disease (NF1-related PN; 12 mg (n = 4)): 3 (75.0) n (%)
Patients with progressive disease (PD) (NF1-related PN; 16 evaluable patients): none experienced PD; also recorded: zero patients had PD
Patients with reduced tumor volume (NF1-related PN; 16 patients with at least one post-baseline tumor assessment): 100%
Best overall response: Complete response (NF1-related PN; Total (n = 16)): 0 n (%)
Best overall response: Disease progression (NF1-related PN; Total (n = 16)): 0 n (%)
Best overall response: Not evaluable (NF1-related PN; Total (n = 16)): 0 n (%)
Best overall response: Partial response (NF1-related PN; Total (n = 16)): 6 (37.5) n (%)
Best overall response: Stable disease (NF1-related PN; Total (n = 16)): 10 (62.5) n (%)
Largest reduction in tumor volume (NF1-related PN; in vivo): 84.2%
Patients achieving partial responses (NF1-related PN; six of 16 evaluable patients): 37.5%
Patients with reduction in pain intensity of at least 2 points ([1]; NRS-11 score ≥ 2 at baseline (16/22), cycles 4 and 5, as of 9 August 2022): 72.7%
Average decrease in pain scores ([1]; across all patients, as of 9 August 2022): 2.4 points
Patients achieving complete pain relief at least once (score reduced to 0) ([1]; as of 9 August 2022): 13 patients
Mean pain score reduction ([1]; dose group of 8 mg): 2.5 points
Patients achieving meaningful pain improvement ([1]; dose group of 8 mg (15/20)): 75%
Metabolism (CYP3A4): metabolized primarily by CYP3A4
Cell proliferation [2]: inhibiting cell proliferation
Tumor growth [3]: Anti-tumor activity was observed
Mean T1/2 [4]: 32 to 57 h
Food effect on pharmacokinetic profile [5]: food did not affect the pharmacokinetic profile
